Measured values from PubChem BioAssay AID248 (DTP/NCI, 2004).
Inconclusive results and toxic doses are left out. Rule as the data show it: active = T/C of 150% or more; inactive = T/C below 125%.

Test system: L1210 leukemia ip in BDF1 mice, survival T/C
Experiment: NCI In Vivo Anticancer Drug Screen. Data for tumor model L1210 Leukemia (intraperitoneal) in B6D2F1 (BDF1) mice
Conditions: higher = longer survival
How it was run: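 Antitumor effect is assessed in tumor-bearing animals. Survival in the compound arm is compared with a vehicle-dosed control arm and expressed as their quotient.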

[1] = endpoint: mean survival time, dose: 100.0 mg/kg/injection, schedule: Q01DX001 (ip), vehicle: Klucel (hydroxypropylcellulose) (HPC)
[2] = endpoint: mean survival time, dose: 100.0 mg/kg/injection, schedule: Q01DX009 (ip), vehicle: Klucel (hydroxypropylcellulose) (HPC)
[3] = endpoint: mean survival time, dose: 100.0 mg/kg/injection, schedule: Q04DX003 (ip), vehicle: Klucel (hydroxypropylcellulose) (HPC)
[4] = endpoint: mean survival time, dose: 200.0 mg/kg/injection, schedule: Q01DX001 (ip), vehicle: Klucel (hydroxypropylcellulose) (HPC)
[5] = endpoint: mean survival time, dose: 200.0 mg/kg/injection, schedule: Q01DX009 (ip), vehicle: Klucel (hydroxypropylcellulose) (HPC)
[6] = endpoint: mean survival time, dose: 200.0 mg/kg/injection, schedule: Q04DX003 (ip), vehicle: Klucel (hydroxypropylcellulose) (HPC)
[7] = endpoint: mean survival time, dose: 400.0 mg/kg/injection, schedule: Q04DX003 (ip), vehicle: Klucel (hydroxypropylcellulose) (HPC)
[8] = endpoint: mean survival time, dose: 100.0 mg/kg/injection, schedule: Q01DX009 (ip), vehicle: saline with Tween-80
[9] = endpoint: mean survival time, dose: 200.0 mg/kg/injection, schedule: Q01DX009 (ip), vehicle: saline with Tween-80
[10] = endpoint: mean survival time, dose: 100.0 mg/kg/injection, schedule: Q04DX003 (ip), vehicle: saline with Tween-80
[11] = endpoint: mean survival time, dose: 200.0 mg/kg/injection, schedule: Q04DX003 (ip), vehicle: saline with Tween-80
[12] = endpoint: mean survival time, dose: 400.0 mg/kg/injection, schedule: Q04DX003 (ip), vehicle: saline with Tween-80
[13] = endpoint: mean survival time, dose: 100.0 mg/kg/injection, schedule: Q01DX001 (ip), vehicle: saline
[14] = endpoint: mean survival time, dose: 200.0 mg/kg/injection, schedule: Q01DX001 (ip), vehicle: saline
[15] = endpoint: mean survival time, dose: 400.0 mg/kg/injection, schedule: Q01DX001 (ip), vehicle: saline

Measured: T/C

O=[N+]([O-])c1ccccc1S(=O)(=O)/C=C/c1ccccc1
inactive: [1] 96 % of control | [2] 93 % of control | [3] 100 % of control | [4] 109 % of control | [5] 100 % of control | [6] 106 % of control | endpoint: mean survival time, dose: 400.0 mg/kg/injection, schedule: Q01DX001 (ip), vehicle: Klucel (hydroxypropylcellulose) (HPC) 96 % of control | endpoint: mean survival time, dose: 400.0 mg/kg/injection, schedule: Q01DX009 (ip), vehicle: Klucel (hydroxypropylcellulose) (HPC) 94 % of control | [7] 101 % of control

O=C(CNC(=O)Nc1nccs1)NNC(=O)Nc1cccc(C(F)(F)F)c1
inactive: endpoint: mean survival time, dose: 50.0 mg/kg/injection, schedule: Q01DX009 (ip), vehicle: saline with Tween-80 94 % of control | [8] 105 % of control | [9] 102 % of control

CCCCCCCCCc1cc(=O)n(-c2ccc(C(=O)OCC)cc2)n1C
inactive: endpoint: mean survival time, dose: 12.5 mg/kg/injection, schedule: Q04DX003 (ip), vehicle: Klucel (hydroxypropylcellulose) (HPC) 105 % of control | endpoint: mean survival time, dose: 25.0 mg/kg/injection, schedule: Q04DX003 (ip), vehicle: Klucel (hydroxypropylcellulose) (HPC) 102 % of control | endpoint: mean survival time, dose: 50.0 mg/kg/injection, schedule: Q04DX003 (ip), vehicle: Klucel (hydroxypropylcellulose) (HPC) 97 % of control

Cc1cc2ncn(CO)c2cc1C
inactive: [10] 100 % of control | [11] 94 % of control | [12] 100 % of control

Cc1nc(Cl)ncc1N
inactive: [13] 100 % of control | [14] 98 % of control | [15] 98 % of control

Oc1ccc(C=Nc2ccccc2N=Cc2ccc(O)c(O)c2)cc1O
inactive: [8] 105 % of control | [10] 100 % of control | [9] 100 % of control | [11] 96 % of control | endpoint: mean survival time, dose: 400.0 mg/kg/injection, schedule: Q01DX009 (ip), vehicle: saline with Tween-80 100 % of control | [12] 91 % of control

Cc1ccc(NC(=O)c2c(Cl)c(Cl)c(Cl)c(Cl)c2C(=O)O)cc1Cl
inactive: [2] 100 % of control | [3] 103 % of control | [5] 98 % of control | [6] 102 % of control | [7] 96 % of control

c1ccc2c(c1)[nH]c1ccncc12
inactive: endpoint: mean survival time, dose: 25.0 mg/kg/injection, schedule: Q04DX003 (ip), vehicle: saline with Tween-80 101 % of control | endpoint: mean survival time, dose: 50.0 mg/kg/injection, schedule: Q04DX003 (ip), vehicle: saline with Tween-80 95 % of control | [10] 97 % of control

O=Cc1cc(Br)ccc1[N+](=O)[O-]
inactive: [13] 103 % of control | [14] 103 % of control | [15] 101 % of control

CC(C)(C)C1CC(C(F)(F)F)(C(F)(F)F)OP(=O)(N2CCCCC2)O1 (configuration not stated)
inactive: endpoint: mean survival time, dose: 50.0 mg/kg/injection, schedule: Q01DX001 (ip), vehicle: Klucel (hydroxypropylcellulose) (HPC) 98 % of control | [1] 100 % of control | [4] 96 % of control

CC(=O)OC1(C)CC(C)C(=O)C(C(O)CC2CC(=O)NC(=O)C2)C1 (configuration not stated)
inactive: endpoint: mean survival time, dose: 0.05 mg/kg/injection, schedule: Q01DX009 (ip), vehicle: saline with Tween-80 108 % of control | endpoint: mean survival time, dose: 0.06 mg/kg/injection, schedule: Q01DX009 (ip), vehicle: water 107 % of control | endpoint: mean survival time, dose: 0.1 mg/kg/injection, schedule: Q01DX009 (ip), vehicle: saline with Tween-80 114 % of control | endpoint: mean survival time, dose: 0.12 mg/kg/injection, schedule: Q01DX009 (ip), vehicle: saline 117 % of control | endpoint: mean survival time, dose: 0.15 mg/kg/injection, schedule: Q01DX009 (ip), vehicle: saline with Tween-80 91 % of control | endpoint: mean survival time, dose: 0.15 mg/kg/injection, schedule: Q01DX009 (ip), vehicle: saline 120 % of control | endpoint: mean survival time, dose: 0.2 mg/kg/injection, schedule: Q01DX009 (ip), vehicle: saline with Tween-80 120 % of control | endpoint: mean survival time, dose: 0.25 mg/kg/injection, schedule: Q01DX009 (ip), vehicle: saline 109 % of control | endpoint: mean survival time, dose: 0.3 mg/kg/injection, schedule: Q01DX009 (ip), vehicle: saline 118 % of control | endpoint: mean survival time, dose: 0.5 mg/kg/injection, schedule: Q01DX009 (ip), vehicle: saline 96 % of control | endpoint: mean survival time, dose: 0.5 mg/kg/injection, schedule: Q01DX009 (ip), vehicle: water 108 % of control | endpoint: mean survival time, dose: 0.5 mg/kg/injection, schedule: Q04DX003 (ip), vehicle: water 108 % of control | endpoint: mean survival time, dose: 1.0 mg/kg/injection, schedule: Q01DX009 (ip), vehicle: water 100 % of control | endpoint: mean survival time, dose: 1.0 mg/kg/injection, schedule: Q04DX003 (ip), vehicle: saline 115 % of control | endpoint: mean survival time, dose: 1.0 mg/kg/injection, schedule: Q04DX003 (ip), vehicle: water 109 % of control | endpoint: mean survival time, dose: 1.2 mg/kg/injection, schedule: Q01DX009 (ip), vehicle: saline 115 % of control | endpoint: mean survival time, dose: 2.0 mg/kg/injection, schedule: Q01DX001 (ip), vehicle: saline 102 % of control | endpoint: mean survival time, dose: 2.0 mg/kg/injection, schedule: Q04DX003 (ip), vehicle: saline 116 % of control | endpoint: mean survival time, dose: 2.0 mg/kg/injection, schedule: Q04DX003 (ip), vehicle: water 108 % of control | endpoint: mean survival time, dose: 2.0 mg/kg/injection, schedule: Q08DX002 (ip), vehicle: saline 102 % of control | endpoint: mean survival time, dose: 4.0 mg/kg/injection, schedule: Q01DX001 (ip), vehicle: saline 100 % of control | endpoint: mean survival time, dose: 4.0 mg/kg/injection, schedule: Q04DX003 (ip), vehicle: saline 114 % of control | endpoint: mean survival time, dose: 4.0 mg/kg/injection, schedule: Q04DX003 (ip), vehicle: water 100 % of control | endpoint: mean survival time, dose: 4.0 mg/kg/injection, schedule: Q08DX002 (ip), vehicle: saline 98 % of control | endpoint: mean survival time, dose: 8.0 mg/kg/injection, schedule: Q01DX001 (ip), vehicle: saline 109 % of control | endpoint: mean survival time, dose: 8.0 mg/kg/injection, schedule: Q08DX002 (ip), vehicle: saline 100 % of control | endpoint: mean survival time, dose: 62.5 micrograms/kg/injection, schedule: Q01DX009 (ip), vehicle: saline 115 % of control | endpoint: mean survival time, dose: 125.0 micrograms/kg/injection, schedule: Q01DX009 (ip), vehicle: saline 123 % of control | endpoint: mean survival time, dose: 125.0 micrograms/kg/injection, schedule: Q03HX008 (ip), vehicle: saline 104 % of control | endpoint: mean survival time, dose: 125.0 micrograms/kg/injection, schedule: Q03HX016 (ip), vehicle: saline 123 % of control | endpoint: mean survival time, dose: 250.0 micrograms/kg/injection, schedule: Q01DX009 (ip), vehicle: saline 101 % of control | endpoint: mean survival time, dose: 250.0 micrograms/kg/injection, schedule: Q03HX008 (ip), vehicle: saline 112 % of control | endpoint: median survival time, dose: 1.0 mg/kg/injection, schedule: Q04DX003 (ip), vehicle: saline 103 % of control | endpoint: median survival time, dose: 2.0 mg/kg/injection, schedule: Q04DX003 (ip), vehicle: saline 105 % of control | endpoint: median survival time, dose: 4.0 mg/kg/injection, schedule: Q04DX003 (ip), vehicle: saline 106 % of control | endpoint: median survival time, dose: 8.0 mg/kg/injection, schedule: Q04DX003 (ip), vehicle: saline 114 % of control

CC(CC(=O)N1CCCCC1)CC(=O)N1CCCCC1
inactive: [13] 94 % of control | [14] 104 % of control

COC(=O)C(Cc1[nH]cnc1N=Nc1ccc(Br)cc1)NC(C)=O (configuration not stated)
inactive: endpoint: mean survival time, dose: 100.0 mg/kg/injection, schedule: Q01DX001 (ip), vehicle: saline with Tween-80 107 % of control | endpoint: mean survival time, dose: 200.0 mg/kg/injection, schedule: Q01DX001 (ip), vehicle: saline with Tween-80 96 % of control | endpoint: mean survival time, dose: 400.0 mg/kg/injection, schedule: Q01DX001 (ip), vehicle: saline with Tween-80 96 % of control
